Assay [1] relates to baboons challenged with a lethal dose of E. coli. The assay is described as follows: Baboon model of sepsis, lethal dose of E. coli with or without infused APC. Type of assay: in vivo. The protocol: Six to 8 week male C57BL/6 mice (Jackson Lab) were used according to an animal protocol approved by Institutional Animal Care and Use Committees of the Oklahoma Medical Research Foundation. Baboon experiments were performed as previously described^5.
To test whether extracellular histones may be involved in the pathogenesis of diseases and if APC can cleave these histones in vivo, the inventors examined frozen archival plasma samples from a non-human primate model of sepsis in which baboons were challenged with a lethal dose of E. coli (Taylor et al., 1987). […] The inventors measured extracellular histones in the plasma from animals challenged with the lethal dose of E. coli either in the absence or presence of infused APC. Intact histone H3 was detected by Western blot in the plasma of the two baboons challenged with the lethal dose of E. coli and reached about 15 μg/ml 8 hours post-challenge (FIG. 14E). The inventors were unable to measure other histones in the same way because those anti-histone antibodies were not adequately sensitive. The increase in histone H3 accompanied the onset of acute renal failure as indicated by a high serum creatinine level, 2.65+/−0.05 mg/dL (normal range: 0.7-1.4 mg/dL) 8 hours post-challenge. […] APC co-infusion protected renal function as indicated by the normal serum creatinine level, 1.15+/−0.15 mg/dL at 8 hours post-challenge. […]

The next assay relates to IL-6. The assay is described as follows: IL-6 production from endothelium (ELISA). The format is cell-based, human. As to conditions: FIG. 8. The protocol: FIG. 8—Histones induce IL-6 production from endothelium. EA.hy926 cells were stimulated with histone (0.1 mg/ml) or histone H3, histone H4 (50 μg/ml) for 24 hr at 37° C. in the absence or presence of APC (6 μg/ml), Anti-TLR2, Anti-TLR4 (10 μg/ml). Conditioned medium was measured for IL-6 production by IL-6 ELISA kit.
Background: ELISA stands for enzyme-linked immunosorbent assay.

The subject of another assay is calf thymus histone H3. As to the kind of experiment: Cleavage of purified histone H3 by APC (SDS-PAGE). The format is biochemical. As to conditions: 100 μg/ml histone H3, indicated concentrations of human APC, 1 hr, 37° C.; FIG. 13C.
The next assay has as its system mice. As to the kind of experiment: Intravenous histone injection lethality in mice. Type of assay: in vivo, mouse. As to conditions: co-injection of 5 mg APC/kg with 75 mg/kg histones, n=5. The protocol: To test the toxic effect of histones in vivo, the inventors injected 75 mg/kg of histones intravenously into mice. […] The calculated histone H3 concentration in the circulation of mice injected with the lethal dose of histones is about 5 times higher than the histone H3 level detected in the baboon plasma 8 hr post challenge with E. coli. […] The ratio of APC to histone H3 used to rescue the mice in vivo is similar to the ratio of APC to histone H3 used in endothelial cytoprotection experiment in vitro.

The test system of assay [2] is baboons challenged with a lethal dose of E. coli. The settings on record: infusion of APC (Taylor et al., 1987); cited from earlier work.
The conditions of assay [3]: severe sepsis; decreased from about 31%; cited from earlier work.
The target of another assay is T1, calf thymus histone H4 (Bos taurus, UniProt P62803).
T1 construct: Purified calf thymus histone H3 (top panel) or histone H4 (bottom panel); purchased Roche; host or cells: calf thymus tissue
As to the kind of experiment: Cleavage of purified histone H4 by APC (SDS-PAGE). The format is biochemical. As to conditions: 37° C. The protocol: 0.1 mg/ml histone H4 was incubated with 20 μg/ml human APC in PBS containing 1 mM CaCl2 and MgCl2 at 37° C. for 60 min. Sample was subjected to SDS-PAGE and GelCode Blue (PIERCE) staining or sent to matrix-assisted laser desorption ionization-time of flight facility at the University of Oklahoma Health Science Center for molecular weight determination.

The test system of a further assay is IL-8. The assay is described as follows: IL-8 production from endothelium (ELISA). The format is cell-based, human. The settings on record: FIG. 9. The protocol: FIG. 9—Histones induce IL-8 production from endothelium. EA.hy926 cells were stimulated with histone (0.1 mg/ml) or histone H3, histone H4 (50 μg/ml) for 24 hr at 37° C. in the absence or presence of APC (6 μg/ml), Anti-TLR2, Anti-TLR4 (10 μg/ml). Conditioned medium was measured for IL-8 production by […] ELISA kit.

[4] abbreviates: APC 6 μg/ml, Anti-TLR2, Anti-TLR4 10 μg/ml, 24 hr.
The mark [5] stands for this setting: stimulation of EA.hy926 24 hr, serum-free, histones 0.1 mg/ml, histone H3 or H4 50 μg/ml.

Method for calf thymus histone H3: (FIG. 13C) Purified calf thymus histone H3 (top panel) or histone H4 (bottom panel) (100 μg/ml) was incubated in Opti-MEM medium with the indicated concentrations of human APC for 1 hr at 37° C. Samples were then subjected to SDS-PAGE and coomassie blue staining.

In turn, “APC: Human recombinant APC (Xigris) purchased from Eli Lilly; drotrecogin alfa (activated protein C)” registered a serum creatinine level in assay [1] (8 hours post-challenge, APC co-infusion, normal range 0.7-1.4 mg/dL, 2.65+/−0.05 without APC) of 1.15 ± 0.15 mg/dL. For the same substance, the “cleavage of extracellular histone H3 in plasma (Western blot)” value in assay [1] (two animals challenged with a lethal dose of E. coli and administered APC, FIG. 14E) is given as “can cleave extracellular histones in vivo”. Also, in the assay on IL-6 (setting [4]), the “inhibition of histone-induced IL-6 production” value is “completely inhibits histone effect on IL-6 and IL-8 production”. Further, the “cleavage of purified histone H3” value with calf thymus histone H3 is “cleaved histone H3 and H4 in a dose dependent fashion”. The “rescue from lethal dose of histones” value in the assay on mice is on record as “rescued all of the mice”. Further, the survival of baboons entry in assay [2] is listed as “rescued these animals”. For the same substance, in assay [3], the mortality result is on record as “about 25%”. The “cleavage of purified histone H4” value is “cleaved histone H3 and H4 in a dose dependent fashion” with calf thymus histone H4 (100 μg/ml histone H4, indicated concentrations of human APC, 1 hr, FIG. 13C); “also cleaved by APC” in the assay with calf thymus histone H4 (0.1 mg/ml histone H4, 20 μg/ml human APC, 60 min, 4-7 KD fragments, FIG. 4B). Besides, the “inhibition of histone-induced IL-8 production” value in the assay with IL-8 (setting [4]) was “completely inhibits histone effect on IL-6 and IL-8 production”.
In the case of Pam3CSK4, in the assay with IL-6 (setting [5]), the IL-6 production entry was “have no effect”. Moreover, the IL-8 production entry with IL-8 (setting [5]) is “have no effect”.
